Measured values from EP0241232A1, “Isoxazolylethanol derivatives” (SHIONOGI SEIYAKU KABUSHIKI KAISHA, priority 1986, dated 1987).
Where two headings read alike, the source gives them in different places.

Columns and labels:
Rhizoctonia solani = assay: Control by seed-soaking: Rhizoctonia damping-off in cucumber; assay type: in vivo; settings: 360 h, read-out: Control Index Rhizoctonia Damping-Off in Cucumber
Method: (§1) The test compound was dissolved in 0.2 ml of acetone and suspended in demineralized distilled water containing a small amount of spreader, to a concentration of 500 ppm. The suspension was further diluted to one quarter dilution with demineralized distilled water (containing a small amount of spreader) to give a suspension in 125 ppm. All seeds of oats, wheat and cucumber were soaked in these suspensions at room temperature for an hour and then the seeds were air-dried.
(§2) The seeds as described above were sown in plastic pots (diameter : 9 cm). For rust and powdery mildews, the pots were kept in a glasshouse for 1 - 3 weeks until the seeds grew to young plants. The young oats (10 - 20 plants per pot) were inoculated by dusting with spores of Puccinia coronata, and the wheat (10 - 20 plants per pot) was also inoculated by spraying with spores of Erysiphe graminis f. sp. tritici, and the cucumber (1 plant per pot) was also inoculated by spraying with spore suspension of Sphaerotheca fuliginea. These inoculated plants were further kept in a glasshouse for 10 - 14 days until assessment. For damping-off, the treated seeds were sown in paper pots (diameter : 7.5 cm; depth : 6 cm) which contained soil infested with Rhizoctonia solani by mixing sterilized soil and pre-cultured fungus. Then the pots were kept in a humid glasshouse at 25 - 32 ^*C.
(§3) Damping-off was observed 15 days after sowing, and disease degree and control effect were obtained from the following equations. [formula] [formula] where diseased seedlings included damping-off and unemerged'seeds due to infection. For the foliar diseases, disease development was observed 10 - 14 days after inoculation of spores, and control effect was obtained by the following index.

[1] = test system: Erysiphe graminis f. sp. tritici; assay: Control by seed-soaking: powdery mildew in wheat; assay type: in vivo
Method: as §1, §2, §3

Sphaerotheca fuliginea [2] = assay: Control by seed-soaking: powdery mildew in cucumber; assay type: in vivo
Method: as §1, §2, §3

Candida albicans KE-2 [3] = assay: Inhibition test against pseudomycelium formation of Candida albicans; assay type: cell-based; settings: KE2, minimum effective concentration preventing typical pseudomycelium formation, Eagle-MEM + 20 % calf serum, 18 hours at 37 °C, read-out: Inhibitory Concentration of Pseudo-myselium Formation
Method: Candida albicans KE-2 was inoculated to Eagle-MEM medium (Nissan 2 made by Nissui Seiyaku, Ltd.) supplemented with 20 % calf serum so that its final inoculum of yeast cell might be 1 x 10^6 yeast cells per milliliter. The test compounds were added thereon in two fold dilution series. After incubation for 18 hours at 37 °C, the fungal growth in each drug concentration was smeared and fixed on a slide glass, and the presence or absence of the pseudomycelium formation was examined by a microscope following Giemsa staining. Minimum effective concentration was defined as the lowest concentration of the compound which prevented typical pseudomycelium formation.

Puccinia coronata = assay: Control by seed-soaking: crown rust in oats; assay type: in vivo
Method: as §1, §2, §3

Candida albicans KE-2 [4] = assay: Therapeutic effect against experimental candidiasis in mice; assay type: in vivo; settings: KE2, po, 120 h, mouse survival ratio on the 5th day after infection, Jcl-ICR female mouse, 50 mg/kg orally three times (0, 4, 24 hours)
Method: After Candida albicans KE-2 was incubated on Sabouraud's glucose agar at 28 °C for 48 hr., it was suspended in Sabouraud's glucose broth and the cells ([…]) were injected to a tail vein of Jcl-ICR female mouse (4 weeks age; weight : 18 - 20 g). A suspension of the test compound in 2 % gum arabic was orally administered three times, immediately after infection of the yeast ( 0 hour), after 4 hours and after 24 hours, as a dosage of 50 mg/kg. Non-treated group was used as control. Each eight mice per group was used in control group and treated group. All the mice in control group died within 48 hr. after infection. Therapeutic effect of the test compound was judged by mouse survival ratio on the 5th day after infection.

Sphaerotheca fuliginea [5] = assay: Control of cucumber powdery mildew by foliar spray; assay type: in vivo; settings: observed 10 days after inoculation; for Control Index Preventive Effect: inoculation 24 hr. after application; for Control Index Curative Effect: inoculation 24 hr. before application
Method: The test compound was dissolved in a small amount of acetone and suspended in demineralized distilled water containing a spreader, to a concentration of 7.8 ppm and 2.0 ppm. Young cucumber plants (c.v. Tsukuba-Shiroibo) of 2-leaf stage grown in pots were sprayed sufficiently with the suspension.
Spores of Sphaerotheca fuliginea cultured in cucumber plants were collected and suspended in distilled water. Inoculation was made by spraying with the spore suspension to the test plant of 24 hr. after application of the test compound (preventive control) or 24 hr. before application (curative control).
Development of the disease was observed 10 days after inoculation and control index was obtained as described in Experiment 3.

[6] = seed-soaking, 125 ppm, observed 15 days after sowing, control effect by equation
[7] = seed-soaking, 500 ppm, observed 15 days after sowing, control effect by equation

Structure (SMILES) | pest or weed control at 125 ppm (Rhizoctonia solani; [6]) [%] | pest or weed control at 500 ppm (Rhizoctonia solani; [7]) [%] | minimal effective concentration (Candida albicans KE-2 [3]) [µg/mL] | responders at 50 mg/kg (Candida albicans KE-2 [4]) [%] | Control Index Preventive Effect (Sphaerotheca fuliginea [5]; foliar spray 2.0 ppm) | Control Index Curative Effect (Sphaerotheca fuliginea [5]; foliar spray 2.0 ppm) | Control Index Preventive Effect (Sphaerotheca fuliginea [5]; foliar spray 7.8 ppm) | Control Index Curative Effect (Sphaerotheca fuliginea [5]; foliar spray 7.8 ppm) | further results
OC(Cn1cncn1)(c1ccc(F)cc1)c1ccon1 (stereo not drawn) [Ia - 1, 1-(4-Fluorophenyl)-1-(isoxazol-3-yl)-2-(1H-1,2,4-triazol-l-yl)ethanol] | 71 | 90 | 0.31 | 87.5 | – | – | – | – | Control Index Powdery Mildew in Wheat ([1]; 125 ppm): 70 (Leaves covered with symptom between 16 % and 45 % area); Control Index Powdery Mildew in Wheat ([1]; 500 ppm): 100; Control Index Powdery Mildew in Cucumber (Sphaerotheca fuliginea [2]; 125 ppm): 0 (Leaves covered with symptom more than 66 %); Control Index Powdery Mildew in Cucumber (Sphaerotheca fuliginea [2]; 500 ppm): 70 (Leaves covered with symptom between 16 % and 45 % area); Control Index Crown Rust in Oats (Puccinia coronata; 125 ppm): 50 (Leaves covered with symptom between 46 % and 65 % area); Control Index Crown Rust in Oats (Puccinia coronata; 500 ppm): 90 (Leaves covered with symptom between 4 % and 15 % area)
Cc1cc(C(O)(Cn2cncn2)c2ccc(Cl)cc2)no1 (stereo not shown) [Ia - 5] | 66 | 94 | 0.02 | 87.5 | 70 (Leaves covered with symptom between 16 % and 45 % area) | 97 (Leaves covered with symptom less than 3 % area) | 97 (Leaves covered with symptom less than 3 % area) | 100 | Control Index Powdery Mildew in Wheat ([1]; 125 ppm): 70 (Leaves covered with symptom between 16 % and 45 % area); Control Index Powdery Mildew in Wheat ([1]; 500 ppm): 100; Control Index Powdery Mildew in Cucumber (Sphaerotheca fuliginea [2]; 125 ppm): 0 (Leaves covered with symptom more than 66 %); Control Index Powdery Mildew in Cucumber (Sphaerotheca fuliginea [2]; 500 ppm): 70 (Leaves covered with symptom between 16 % and 45 % area); Control Index Crown Rust in Oats (Puccinia coronata; 125 ppm): 50 (Leaves covered with symptom between 46 % and 65 % area); Control Index Crown Rust in Oats (Puccinia coronata; 500 ppm): 97 (Leaves covered with symptom less than 3 % area)
Cc1cc(C(O)(Cn2cncn2)c2ccc(F)cc2)no1 (stereo not shown) [Ia - 6] | 54 | 85 | 0.16 | – | – | – | – | – | –
Cc1cc(C(O)(Cn2cncn2)c2ccc(Cl)cc2Cl)no1 (stereo not shown) [Ia - 7] | 92 | 94 | 0.02 | – | 90 (Leaves covered with symptom between 4 % and 15 % area) | 97 (Leaves covered with symptom less than 3 % area) | 100 | 100 | Control Index Powdery Mildew in Wheat ([1]; 125 ppm): 70 (Leaves covered with symptom between 16 % and 45 % area); Control Index Powdery Mildew in Wheat ([1]; 500 ppm): 70 (Leaves covered with symptom between 16 % and 45 % area); Control Index Crown Rust in Oats (Puccinia coronata; 125 ppm): 70 (Leaves covered with symptom between 16 % and 45 % area); Control Index Crown Rust in Oats (Puccinia coronata; 500 ppm): 100
Cc1cc(C(O)(Cn2cncn2)c2ccc(F)cc2F)no1 (stereo not shown) [Ia - 8] | 74 | 94 | 0.08 | 50 | 90 (Leaves covered with symptom between 4 % and 15 % area) | 90 (Leaves covered with symptom between 4 % and 15 % area) | 97 (Leaves covered with symptom less than 3 % area) | 100 | –
Cc1cc(C(O)(Cn2cncn2)c2ccccc2)no1 (stereo not shown) [Ia - 9] | – | – | 0.31 | – | – | – | – | – | –
CCc1cc(C(O)(Cn2cncn2)c2ccc(F)cc2F)no1 (stereo not shown) [Ia - 10] | – | – | 0.08 | 50 | – | – | – | – | –
CCCCc1cc(C(O)(Cn2cncn2)c2ccc(F)cc2F)no1 (stereo not shown) [Ia - 11] | – | – | 0.04 | 50 | – | – | – | – | –
CC(C)(C)c1cc(C(O)(Cn2cncn2)c2ccc(F)cc2F)no1 (stereo not shown) [Ia - 12] | – | – | 0.31 | – | – | – | – | – | –
Cc1cc(C(O)(Cn2ccnc2)c2ccc(F)cc2)no1 (stereo not shown) [Ia - 13, 1-(4-Fluorophenyl)-1-(5-methylisoxazol-3-yl)-2-(1H-imidazol-1-yl)ethanol] | – | – | 0.63 | – | – | – | – | – | –
Cc1onc(C(O)(Cn2cncn2)c2ccc(Cl)cc2)c1Cl (stereo not shown) [Ib - 1, 1-(4-Chlorophenyl)-1-(5-methyl-4-chloroisoxazol-3-yl)-2-(1H-1,2,4-triazol-1-yl)ethanol] | 35 | 88 | 0.31 | – | 70 (Leaves covered with symptom between 16 % and 45 % area) | 97 (Leaves covered with symptom less than 3 % area) | 97 (Leaves covered with symptom less than 3 % area) | 100 | –
Cc1onc(C(O)(Cn2cncn2)c2ccc(F)cc2)c1Cl (stereo not shown) [Ib - 2] | 60 | 85 | 1.25 | – | – | – | – | – | –
Cc1onc(C(O)(Cn2cncn2)c2ccccc2)c1Cl (stereo not shown) [Ib - 3] | – | – | 1.25 | – | – | – | – | – | –
CC(C)(C)C(=O)C(Oc1ccc(Cl)cc1)n1cncn1 (stereo not shown) [Triadi-mefon, reference compound] | – | – | – | – | 90 (Leaves covered with symptom between 4 % and 15 % area) | 90 (Leaves covered with symptom between 4 % and 15 % area) | 90 (Leaves covered with symptom between 4 % and 15 % area) | 90 (Leaves covered with symptom between 4 % and 15 % area) | pest or weed control at 125 ppm (Rhizoctonia solani): 34%; pest or weed control at 500 ppm (Rhizoctonia solani): 49%; Control Index Powdery Mildew in Wheat ([1]; 125 ppm): 90 (Leaves covered with symptom between 4 % and 15 % area); Control Index Powdery Mildew in Wheat ([1]; 500 ppm): 100; Control Index Powdery Mildew in Cucumber (Sphaerotheca fuliginea [2]; 125 ppm): 0 (Leaves covered with symptom more than 66 %); Control Index Powdery Mildew in Cucumber (Sphaerotheca fuliginea [2]; 500 ppm): 70 (Leaves covered with symptom between 16 % and 45 % area); Control Index Crown Rust in Oats (Puccinia coronata; 125 ppm): 50 (Leaves covered with symptom between 46 % and 65 % area); Control Index Crown Rust in Oats (Puccinia coronata; 500 ppm): 97 (Leaves covered with symptom less than 3 % area)
